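Compound exposure: 48 hours, 5 concentrations, 96-well plates. GI50 = concentration required for 50% inhibition of growth.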 Calls of active or inactive are those of the source. No stated cut-off is given here; in the data, active = GI50 up to about 1.1 µM and inactive = higher.
Tests used:
Experiment in all cases: NCI tumour cell line growth inhibition, 48 h
[1] = test system: 786-0
[2] = test system: A498
[3] = test system: A549
[4] = test system: ACHN
[5] = test system: BT-549
[6] = test system: CAKI-1
[7] = test system: CCRF-CEM
[8] = test system: COLO 205
[9] = test system: DU-145
[10] = test system: EKVX
[11] = test system: HCT-116
[12] = test system: HCT-15
[13] = test system: HL-60
[14] = test system: HOP-62
[15] = test system: HT-29
[16] = test system: Hs-578T
[17] = test system: IGROV-1
[18] = test system: K562
[19] = test system: KM12
[20] = test system: LOX IMVI
[21] = test system: M14
[22] = test system: MCF7
[23] = test system: MDA-MB-231
[24] = test system: MDA-MB-435
[25] = test system: MDA-N
[26] = test system: MOLT-4
[27] = test system: Malme-3M
[28] = test system: NCI-H226
[29] = test system: NCI-H23
[30] = test system: NCI-H460
[31] = test system: NCI-H522
[32] = test system: NCI/ADR-RES
[33] = test system: OVCAR-3
[34] = test system: OVCAR-4
[35] = test system: OVCAR-5
[36] = test system: OVCAR-8
[37] = test system: PC-3
[38] = test system: RPMI-8226
[39] = test system: SF-295
[40] = test system: SF-539
[41] = test system: SK-MEL-28
[42] = test system: SK-MEL-2
[43] = test system: SK-MEL-5
[44] = test system: SK-OV-3
[45] = test system: SN12C
[46] = test system: SNB-19
[47] = test system: SR
[48] = test system: SW-620
[49] = test system: T47D
[50] = test system: TK-10
[51] = test system: U-251
[52] = test system: UACC-257
[53] = test system: UO-31
[54] = test system: HCC 2998
[55] = test system: RXF 393
[56] = test system: SF-268
[57] = test system: SNB-75
[58] = test system: UACC-62

For C=C1CC[C@@H]2[C@](C)(COC(=O)CCC(=O)OC)CCC[C@@]2(C)[C@@H]1CCC1=CC(=O)OC1, the GI50 [1] was 70.5 µM (inactive), the GI50 [2] was > 100 µM (inactive) and the GI50 [3] was > 100 µM (inactive). For the same molecule, the GI50 [4] was > 100 µM (inactive), the GI50 [5] was 64.9 µM (inactive) and the GI50 [6] was 26.2 µM (inactive). For the same molecule, the GI50 [7] was 28.2 µM (inactive), the GI50 [8] was 77.8 µM (inactive) and the GI50 [9] was 71.4 µM (inactive). For the same molecule, the GI50 [10] was > 100 µM (inactive), the GI50 [11] was 59.8 µM (inactive) and the GI50 [12] was 39.5 µM. The GI50 [13] was 20.3 µM (inactive), the GI50 [14] was > 100 µM (inactive) and the GI50 [15] was > 100 µM (inactive). For the same molecule, the GI50 [16] was 77.6 µM (inactive), the GI50 [17] was > 100 µM (inactive) and the GI50 [18] was 29 µM (inactive). For the same molecule, the GI50 [19] was 43.6 µM (inactive), the GI50 [20] was 55.3 µM (inactive) and the GI50 [21] was > 100 µM (inactive). The GI50 [22] was 38.1 µM (inactive), the GI50 [23] was > 100 µM (inactive) and the GI50 [24] was > 100 µM (inactive). The GI50 [25] was 56 µM (inactive), the GI50 [26] was 17.4 µM (inactive) and the GI50 [27] was > 100 µM (inactive). For the same molecule, the GI50 [28] was 74.3 µM (inactive), the GI50 [29] was > 100 µM (inactive) and the GI50 [30] was > 100 µM (inactive). For the same molecule, the GI50 [31] was 25.9 µM (inactive), the GI50 [32] was 72.8 µM (inactive) and the GI50 [33] was 61.4 µM (inactive). For the same molecule, the GI50 [34] was > 100 µM (inactive), the GI50 [35] was > 100 µM (inactive) and the GI50 [36] was 63 µM (inactive). For the same molecule, the GI50 [37] was 41 µM (inactive), the GI50 [38] was 16.1 µM (inactive) and the GI50 [39] was > 100 µM (inactive). The GI50 [40] was > 100 µM (inactive), the GI50 [41] was > 100 µM (inactive) and the GI50 [42] was 43.4 µM (inactive). The GI50 [43] was 30.5 µM (inactive), the GI50 [44] was > 100 µM (inactive) and the GI50 [45] was > 100 µM (inactive). For the same molecule, the GI50 [46] was > 100 µM (inactive), the GI50 [47] was 21.5 µM (inactive) and the GI50 [48] was 46.5 µM (inactive). For the same molecule, the GI50 [49] was 29.2 µM (inactive), the GI50 [50] was > 100 µM (inactive) and the GI50 [51] was > 100 µM (inactive). For the same molecule, the GI50 [52] was > 100 µM (inactive) and the GI50 [53] was > 100 µM (inactive).
CC1(C)[C@@H]2CC[C@]1(C)[C@H](OC(=O)/C=C/c1ccccc1)C2 was tested, and the GI50 [1] was 18.1 µM (inactive), the GI50 [2] was 18.3 µM (inactive) and the GI50 [3] was 30.8 µM (inactive). For the same molecule, the GI50 [4] was 18 µM (inactive), the GI50 [5] was 21.9 µM (inactive) and the GI50 [6] was 20.2 µM (inactive). For the same molecule, the GI50 [7] was 20.4 µM (inactive), the GI50 [8] was 17.1 µM (inactive) and the GI50 [9] was 19.4 µM (inactive). The GI50 [10] was 19.9 µM (inactive), the GI50 [54] was 17 µM (inactive) and the GI50 [11] was 18.4 µM (inactive). The GI50 [12] was 17.6 µM, the GI50 [13] was 18.4 µM (inactive) and the GI50 [14] was 30.2 µM (inactive). For the same molecule, the GI50 [15] was 16.6 µM (inactive), the GI50 [16] was 19.5 µM (inactive) and the GI50 [17] was 27.7 µM (inactive). For the same molecule, the GI50 [18] was 19.9 µM (inactive), the GI50 [19] was 20.8 µM (inactive) and the GI50 [20] was 21.3 µM (inactive). For the same molecule, the GI50 [21] was 29.9 µM (inactive), the GI50 [22] was 16.7 µM (inactive) and the GI50 [23] was 19.3 µM (inactive). The GI50 [24] was 26 µM (inactive), the GI50 [25] was 31.3 µM (inactive) and the GI50 [27] was 17.3 µM (inactive). The GI50 [28] was 20.8 µM (inactive), the GI50 [29] was 21.7 µM (inactive) and the GI50 [30] was 29 µM (inactive). The GI50 [31] was 14.6 µM (inactive), the GI50 [32] was 18.9 µM (inactive) and the GI50 [33] was < 0.01 µM (active). For the same molecule, the GI50 [34] was 22 µM (inactive), the GI50 [35] was 19.6 µM (inactive) and the GI50 [36] was 20.8 µM (inactive). For the same molecule, the GI50 [37] was 23.4 µM (inactive), the GI50 [55] was 16.9 µM (inactive) and the GI50 [56] was 17.3 µM (inactive). The GI50 [39] was 18 µM (inactive), the GI50 [40] was 20.7 µM (inactive) and the GI50 [41] was 19 µM (inactive). For the same molecule, the GI50 [42] was 17.4 µM (inactive), the GI50 [43] was 16.7 µM (inactive) and the GI50 [44] was 34.9 µM (inactive). The GI50 [45] was 18.8 µM (inactive), the GI50 [46] was 19.8 µM (inactive) and the GI50 [57] was 16.2 µM (inactive). For the same molecule, the GI50 [48] was 15.5 µM (inactive), the GI50 [49] was 15.9 µM (inactive) and the GI50 [50] was 36.9 µM (inactive). The GI50 [51] was 17.7 µM (inactive), the GI50 [52] was 23.8 µM (inactive) and the GI50 [58] was 21.2 µM (inactive). For the same molecule, the GI50 [53] was 19.2 µM (inactive).

Reference: ChEMBL document CHEMBL1201862, “PubChem BioAssay data set” (2004)
